Target: T1, D444C-EAAC1 (Oryctolagus cuniculus, UniProt P31597, D444C)
T1 sequence (P31597 1-524 D444C): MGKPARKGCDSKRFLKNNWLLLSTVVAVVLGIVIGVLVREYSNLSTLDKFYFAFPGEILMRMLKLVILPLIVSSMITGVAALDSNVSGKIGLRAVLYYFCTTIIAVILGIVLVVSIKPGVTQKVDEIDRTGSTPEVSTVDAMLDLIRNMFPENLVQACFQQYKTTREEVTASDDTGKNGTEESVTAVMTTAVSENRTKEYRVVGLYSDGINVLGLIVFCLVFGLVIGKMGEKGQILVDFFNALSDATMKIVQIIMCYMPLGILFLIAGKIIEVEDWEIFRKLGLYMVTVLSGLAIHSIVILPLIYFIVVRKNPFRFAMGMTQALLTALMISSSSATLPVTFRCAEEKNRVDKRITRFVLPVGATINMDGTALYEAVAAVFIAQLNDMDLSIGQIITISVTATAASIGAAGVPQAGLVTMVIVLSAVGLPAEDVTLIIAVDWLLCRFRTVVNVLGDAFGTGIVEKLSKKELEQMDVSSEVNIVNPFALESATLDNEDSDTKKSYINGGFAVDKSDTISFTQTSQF
Test: Substrate-induced steady-state transport currents in oocytes expressing D444C
Type: cell-based, rabbit
Details: 2 mM L-aspartate (Fig. 1 C), other concentrations not given

O=C(O)CCC(=O)O [Succinate, succinate]
Induction of steady-state transport currents: unable to induce steady-state currents

Source: paper PMC2151622 (The Journal of General Physiology, 2007)
